Measurements published in ChEMBL document CHEMBL2401728, “An unexpected Dimroth rearrangement leading to annelated thieno[3,2-d][1,2,3]triazolo[1,5-a]pyrimidines with potent antitumor activity” (Eur J Med Chem, 2013).

Key:
[1] = test system: 786-0; test: Cytotoxicity against human 786-0 cells assessed as cellular growth at 1 uM after 48 hrs by SRB assay relative to control; format: functional
[2] = test system: SF-539; test: Cytotoxicity against human SF539 cells after 48 hrs by SRB assay; format: functional; settings: SF-539, 48 h
[3] = test system: 786-0; test: Cytotoxicity against human 786-0 cells assessed as cellular growth at 0.01 uM after 48 hrs by SRB assay relative to control; format: functional
[4] = test system: KM12; test: Cytotoxicity against human KM12 cells assessed as cellular growth at 0.1 uM after 48 hrs by SRB assay relative to control; format: functional
[5] = test system: HOP-92; test: Cytotoxicity against human HOP92 cells assessed as cellular growth at 0.1 uM after 48 hrs by SRB assay relative to control; format: functional
[6] = test system: CAKI-1; test: Cytotoxicity against human Caki1 cells assessed as cellular growth at 100 uM after 48 hrs by SRB assay relative to control; format: functional
[7] = test system: SN12C; test: Cytotoxicity against human SN12C cells after 48 hrs by SRB assay; format: functional
[8] = test system: CAKI-1; test: Cytotoxicity against human Caki1 cells assessed as cellular growth at 0.1 uM after 48 hrs by SRB assay relative to control; format: functional
[9] = test system: SNB-75; test: Cytotoxicity against human SNB75 cells assessed as cellular growth at 0.1 uM after 48 hrs by SRB assay relative to control; format: functional
[10] = test system: OVCAR-5; test: Cytotoxicity against human OVCAR5 cells assessed as cellular growth at 100 uM after 48 hrs by SRB assay relative to control; format: functional
[11] = test system: HL-60(TB); test: Cytotoxicity against human HL-60(TB) cells assessed as cellular growth at 100 uM after 48 hrs by SRB assay relative to control; format: functional
[12] = test system: SF-268; test: Cytotoxicity against human SF268 cells assessed as cellular growth at 0.01 uM after 48 hrs by SRB assay relative to control; format: functional
[13] = test system: CCRF-CEM; test: Cytotoxicity against human CCRF-CEM cells after 48 hrs by SRB assay; format: functional
[14] = test system: HCT-15; test: Cytotoxicity against human HCT15 cells after 48 hrs by SRB assay; format: functional; settings: HCT-15, 48 h
[15] = test system: DU-145; test: Cytotoxicity against human DU145 cells assessed as cellular growth at 0.01 uM after 48 hrs by SRB assay relative to control; format: functional
[16] = test system: DU-145; test: Cytotoxicity against human DU145 cells after 48 hrs by SRB assay; format: functional; settings: DU-145, 48 h
[17] = test system: SNB-19; test: Cytotoxicity against human SNB19 cells assessed as cellular growth at 1 uM after 48 hrs by SRB assay relative to control; format: functional
[18] = test system: CAKI-1; test: Cytotoxicity against human Caki1 cells assessed as cellular growth at 0.01 uM after 48 hrs by SRB assay relative to control; format: functional
[19] = test system: MDA-MB-435; test: Cytotoxicity against human MDA-MB-435 cells after 48 hrs by SRB assay; format: functional; settings: MDA-MB-435, 48 h
[20] = test system: HCC 2998; test: Cytotoxicity against human HCC2998 cells after 48 hrs by SRB assay; format: functional; settings: HCC 2998, 48 h
[21] = test system: HCC 2998; test: Cytotoxicity against human HCC2998 cells assessed as cellular growth at 0.1 uM after 48 hrs by SRB assay relative to control; format: functional
[22] = test system: MOLT-4; test: Cytotoxicity against human MOLT4 cells assessed as cellular growth at 1 uM after 48 hrs by SRB assay relative to control; format: functional
[23] = test system: KM12; test: Cytotoxicity against human KM12 cells assessed as cellular growth at 100 uM after 48 hrs by SRB assay relative to control; format: functional
[24] = test system: SF-539; test: Cytotoxicity against human SF539 cells assessed as cellular growth at 1 uM after 48 hrs by SRB assay relative to control; format: functional
[25] = test system: SK-MEL-28; test: Cytotoxicity against human SK-MEL-28 cells after 48 hrs by SRB assay; format: functional; settings: SK-MEL-28, 48 h
[26] = test system: COLO 205; test: Cytotoxicity against human COLO205 cells assessed as cellular growth at 0.01 uM after 48 hrs by SRB assay relative to control; format: functional
[27] = test system: SNB-19; test: Cytotoxicity against human SNB19 cells assessed as cellular growth at 0.01 uM after 48 hrs by SRB assay relative to control; format: functional
[28] = test system: SW-620; test: Cytotoxicity against human SW620 cells assessed as cellular growth at 1 uM after 48 hrs by SRB assay relative to control; format: functional
[29] = test system: MOLT-4; test: Cytotoxicity against human MOLT4 cells assessed as cellular growth at 100 uM after 48 hrs by SRB assay relative to control; format: functional
[30] = test system: PC-3; test: Cytotoxicity against human PC3 cells assessed as cellular growth at 1 uM after 48 hrs by SRB assay relative to control; format: functional
[31] = test system: PC-3; test: Cytotoxicity against human PC3 cells assessed as cellular growth at 100 uM after 48 hrs by SRB assay relative to control; format: functional
[32] = test system: PC-3; test: Cytotoxicity against human PC3 cells assessed as cellular growth at 0.01 uM after 48 hrs by SRB assay relative to control; format: functional
[33] = Cytotoxicity against human non-small cell lung cancer cells assessed as cellular growth at 10 uM after 48 hrs by SRB assay relative to control; format: functional, Cancer cell lines
[34] = Cytotoxicity against human CNS cancer cells assessed as cellular growth at 10 uM after 48 hrs by SRB assay relative to control; format: functional, Cancer cell lines
[35] = Cytotoxicity against human renal cancer cells assessed as cellular growth at 10 uM after 48 hrs by SRB assay relative to control; format: functional, Cancer cell lines
[36] = Cytotoxicity against human breast cancer cells assessed as cellular growth at 10 uM after 48 hrs by SRB assay relative to control; format: functional, Cancer cell lines
[37] = read-out: LC50 (the source's name)
[38] = read-out: pLC50 (the source's name) (converted)

`CN1CCN(CCCn2c3c(sc4ncccc43)c(=O)n3nnc(-c4ccccc4)c23)CC1` gave an Activity [1] of 100%, a GI50 ([2]; read-out: GI50) of 1.71 µM and a CC50 [2, 37] of 6.54 µM. It also gave a TGI ([2]; read-out: TGI) of 3.34 µM, a GI50 ([2]; read-out: pGI50 (converted)) of 1.7 µM and a CC50 [2, 38] of 6.61 µM. For the same compound, the TGI ([2]; read-out: pTGI (converted)) was 3.31 µM, the Activity [3] was 103% and the Activity [4] was 94%. It also gave an Activity [5] of 92%, an Activity [6] of -90% and a GI50 ([7]; read-out: GI50) of 1.81 µM. For the same compound, the TGI ([7]; read-out: TGI) was 4.07 µM, the GI50 ([7]; read-out: pGI50 (converted)) was 1.82 µM and the TGI ([7]; read-out: pTGI (converted)) was 4.07 µM. For the same compound, the Activity [8] was 86%, the Activity [9] was 71% and the Activity [10] was -44%. For the same compound, the Activity [11] was -62%, the Activity [12] was 96% and the GI50 ([13]; read-out: GI50) was 1.67 µM. The CC50 [13, 37] was greater than 100 µM, the TGI ([13]; read-out: TGI) was 4.29 µM and the GI50 ([13]; read-out: pGI50 (converted)) was 1.66 µM. The CC50 [13, 38] was greater than 100 µM, the TGI ([13]; read-out: pTGI (converted)) was 4.27 µM and the GI50 ([14]; read-out: GI50) was 1.82 µM. It also gave a CC50 [14, 37] of 8.26 µM, a TGI ([14]; read-out: TGI) of 3.88 µM and a GI50 ([14]; read-out: pGI50 (converted)) of 1.82 µM. It also gave a CC50 [14, 38] of 8.32 µM, a TGI ([14]; read-out: pTGI (converted)) of 3.89 µM and an Activity [15] of 97%. The GI50 ([16]; read-out: GI50) was 1.85 µM, the CC50 [16, 37] was 7.24 µM and the TGI ([16]; read-out: TGI) was 3.66 µM. It also gave a GI50 ([16]; read-out: pGI50 (converted)) of 1.86 µM, a CC50 [16, 38] of 7.24 µM and a TGI ([16]; read-out: pTGI (converted)) of 3.63 µM. The Activity [17] was 107%, the Activity [18] was 97% and the GI50 ([19]; read-out: GI50) was 1.87 µM. For the same compound, the CC50 [19, 37] was 6.68 µM, the TGI ([19]; read-out: TGI) was 3.54 µM and the GI50 ([19]; read-out: pGI50 (converted)) was 1.86 µM. It also gave a CC50 [19, 38] of 6.76 µM, a TGI ([19]; read-out: pTGI (converted)) of 3.55 µM and a GI50 ([20]; read-out: GI50) of 1.88 µM. The CC50 [20, 37] was 6.39 µM, the TGI ([20]; read-out: TGI) was 3.47 µM and the GI50 ([20]; read-out: pGI50 (converted)) was 1.86 µM. The CC50 [20, 38] was 6.46 µM, the TGI ([20]; read-out: pTGI (converted)) was 3.47 µM and the Activity [21] was 99%. It also gave an Activity [22] of 92%, an Activity [23] of -83% and an Activity [24] of 90%. The GI50 ([25]; read-out: GI50) was 15.8 µM, the CC50 [25, 37] was 55.5 µM and the TGI ([25]; read-out: TGI) was 29.6 µM. The GI50 ([25]; read-out: pGI50 (converted)) was 15.8 µM, the CC50 [25, 38] was 55 µM and the TGI ([25]; read-out: pTGI (converted)) was 29.5 µM. It also gave an Activity [26] of 95%, an Activity [27] of 101% and an Activity [28] of 83%. The Activity [29] was -56%.

With `O=C(CCCn1c2c(sc3ccccc32)c(=O)n2nnc(-c3ccccc3)c12)NCCc1c[nH]cn1` the Activity [1] was 53%, the GI50 ([2]; read-out: GI50) was 0.0206 µM and the CC50 [2, 37] was 3.14 µM. For the same compound, the TGI ([2]; read-out: TGI) was 0.122 µM, the GI50 ([2]; read-out: pGI50 (converted)) was 0.0204 µM and the CC50 [2, 38] was 3.16 µM. It also gave a TGI ([2]; read-out: pTGI (converted)) of 0.123 µM, an Activity [30] of 33% and an Activity [3] of 98%. For the same compound, the Activity [4] was 62%, the Activity [5] was 95% and the GI50 ([7]; read-out: GI50) was 0.011 µM. The CC50 [7, 37] was 5.51 µM, the TGI ([7]; read-out: TGI) was 2.03 µM and the GI50 ([7]; read-out: pGI50 (converted)) was 0.011 µM. The CC50 [7, 38] was 5.5 µM, the TGI ([7]; read-out: pTGI (converted)) was 2.04 µM and the Activity [9] was 115%. It also gave an Activity [10] of -80%, an Activity [11] of -89% and an Activity [12] of 105%. For the same compound, the GI50 ([13]; read-out: GI50) was 0.0156 µM, the CC50 [13, 37] was 5.29 µM and the TGI ([13]; read-out: TGI) was 0.29 µM. The GI50 ([13]; read-out: pGI50 (converted)) was 0.0155 µM, the CC50 [13, 38] was 5.25 µM and the TGI ([13]; read-out: pTGI (converted)) was 0.288 µM. It also gave an Activity [31] of -51%, a GI50 ([14]; read-out: GI50) of 0.372 µM and a CC50 [14, 37] of 5.74 µM. The TGI ([14]; read-out: TGI) was 1.9 µM, the GI50 ([14]; read-out: pGI50 (converted)) was 0.372 µM and the CC50 [14, 38] was 5.75 µM. The TGI ([14]; read-out: pTGI (converted)) was 1.91 µM, the Activity [15] was 105% and the GI50 ([16]; read-out: GI50) was 1.07 µM. For the same compound, the CC50 [16, 37] was 4.75 µM, the TGI ([16]; read-out: TGI) was 2.26 µM and the GI50 ([16]; read-out: pGI50 (converted)) was 1.07 µM. The CC50 [16, 38] was 4.79 µM, the TGI ([16]; read-out: pTGI (converted)) was 2.24 µM and the Activity [17] was 65%. The GI50 ([19]; read-out: GI50) was 0.345 µM, the CC50 [19, 37] was 4.7 µM and the TGI ([19]; read-out: TGI) was 1.87 µM. For the same compound, the GI50 ([19]; read-out: pGI50 (converted)) was 0.347 µM, the CC50 [19, 38] was 4.68 µM and the TGI ([19]; read-out: pTGI (converted)) was 1.86 µM. The Activity [32] was 86%, the Activity [23] was -100% and the Activity [24] was -6%. It also gave a GI50 ([25]; read-out: GI50) of 1.69 µM, a CC50 [25, 37] of 5.91 µM and a TGI ([25]; read-out: TGI) of 3.17 µM. For the same compound, the GI50 ([25]; read-out: pGI50 (converted)) was 1.7 µM, the CC50 [25, 38] was 5.89 µM and the TGI ([25]; read-out: pTGI (converted)) was 3.16 µM. It also gave an Activity [26] of 87% and an Activity [27] of 94%.

Compound `O=C(O)CCCn1c2c(sc3ccccc32)c(=O)n2nnc(-c3ccccc3)c12` has an Activity [33] of 85%, an Activity [34] of 88% and an Activity [35] of 75%. It also gave an Activity [36] of 79%.
